Consider two molecules from paper PMC6017873 (Molecules : A Journal of Synthetic Chemistry and Natural …, 2018).

For test [1], the system named is K-562 cells. In words: Acetylation of histone H4 and α-tubulin by Western blot, K-562. The class given is cell-based, human. As to conditions: K-562, 5 or 50 µM. How it is done:
Total proteins were extracted using the MPER® reagent (Thermo-scientific, […], Belgium) supplemented by 1× protease inhibitor cocktail (Complete EDTA-free, Roche, Prophac, Luxembourg, Luxembourg) according to manufacturer's instructions. Histones were extracted as previously described. Western blots were carried out as previously reported. Anti-acetylated α-tubulin (sc-23950) was from Santa Cruz Biotechnology (Tebubio, Boechout, Belgium); anti-acetylated histone H4 (06-866), anti-acetylated histone […] K-562 cells were treated with […] Acetylation of histone H4 (AcH4) and α-tubulin (Ac α- tubulin) was analyzed by Western Blot. β-actin and histone H1 were used as loading controls for the analysis of total and acid extracts, respectively. Blots are representative of three independent experiments. […]

Test [2] has as its target T1, SIRT3 (Homo sapiens, UniProt Q9NTG7).
T1 sequence (Q9NTG7 1-399): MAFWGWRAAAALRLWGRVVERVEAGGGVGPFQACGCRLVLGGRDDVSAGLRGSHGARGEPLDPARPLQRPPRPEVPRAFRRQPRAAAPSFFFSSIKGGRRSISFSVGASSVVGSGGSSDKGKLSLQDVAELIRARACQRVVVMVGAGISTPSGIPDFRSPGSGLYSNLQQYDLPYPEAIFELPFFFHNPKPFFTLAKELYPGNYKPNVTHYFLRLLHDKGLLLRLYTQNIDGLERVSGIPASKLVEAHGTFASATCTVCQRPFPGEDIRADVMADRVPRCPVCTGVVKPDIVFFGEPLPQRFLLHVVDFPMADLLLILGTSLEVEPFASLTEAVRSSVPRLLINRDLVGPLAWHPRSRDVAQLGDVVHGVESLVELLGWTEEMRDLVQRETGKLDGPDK
Also noted: method as in PMID 28475330. As to conditions: cited from earlier work.

The target of test [3] is T2, SIRT1 (Homo sapiens, UniProt Q96EB6).
T2 sequence (Q96EB6 1-747): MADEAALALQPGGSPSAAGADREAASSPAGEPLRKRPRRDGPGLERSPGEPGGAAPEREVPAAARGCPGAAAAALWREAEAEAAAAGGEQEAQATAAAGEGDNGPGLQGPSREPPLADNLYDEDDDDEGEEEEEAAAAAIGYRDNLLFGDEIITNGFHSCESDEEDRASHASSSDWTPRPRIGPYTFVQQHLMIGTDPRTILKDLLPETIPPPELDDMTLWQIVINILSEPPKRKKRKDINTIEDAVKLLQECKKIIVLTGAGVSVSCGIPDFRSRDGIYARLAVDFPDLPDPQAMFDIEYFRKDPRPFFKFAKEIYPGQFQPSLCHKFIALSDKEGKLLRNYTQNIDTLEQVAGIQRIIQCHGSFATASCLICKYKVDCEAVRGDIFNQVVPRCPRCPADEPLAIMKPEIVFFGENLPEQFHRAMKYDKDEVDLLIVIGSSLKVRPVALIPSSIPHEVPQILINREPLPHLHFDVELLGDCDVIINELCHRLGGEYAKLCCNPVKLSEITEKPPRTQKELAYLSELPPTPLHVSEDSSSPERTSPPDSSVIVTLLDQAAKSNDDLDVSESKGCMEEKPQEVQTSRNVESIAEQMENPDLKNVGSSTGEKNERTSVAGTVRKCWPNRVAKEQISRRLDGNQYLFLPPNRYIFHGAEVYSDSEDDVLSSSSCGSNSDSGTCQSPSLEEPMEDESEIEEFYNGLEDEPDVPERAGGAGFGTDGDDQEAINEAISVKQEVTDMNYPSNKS
Also noted: method as in PMID 28475330. As to conditions: reference inhibitors, same experimental conditions; cited from earlier work.

[4] abbreviates: reference inhibitors, same experimental conditions.

As usually defined, the IC50 is the concentration that gives 50% inhibition. `Cc1ccc(C(=O)Nc2ccc(S(=O)(=O)O)c3cc(S(=O)(=O)O)cc(S(=O)(=O)O)c23)cc1NC(=O)c1cccc(NC(=O)Nc2cccc(C(=O)Nc3cc(C(=O)Nc4ccc(S(=O)(=O)O)c5cc(S(=O)(=O)O)cc(S(=O)(=O)O)c45)ccc3C)c2)c1` [Suramin, suramin]: the entries for the “histone H4 or α-tubulin acetylation” value in test [1] and in test [1] (listed as suramin) were “fails to induce histone H4 or α-tubulin acetylation” and “failed to induce any increase in histone or α-tubulin acetylation”, respectively. Also, the “remaining SIRT3 enzymatic activity compared to the control set to 100%” value in test [2] (at 100 µM) is given as 70%. In test [2] (setting [4]), the IC50 was more than 100 µM. Also, the “IC50 SIRT3” value in test [2] (setting [4]) is “inactive”.

Turning to `N#C/C(=C\c1ccc(-c2cc(Cl)ccc2Cl)o1)C(=O)Nc1cccc2ncccc12` [AGK2], the IC50 in test [3] is 98.1 ± 2.4 µM.
